According to article PMC5986654, “Combined HAT/EZH2 modulation leads to cancer-selective cell death” (Oncotarget, 2018):

Key:
EZH2 = target: T1, EZH2 (Homo sapiens, UniProt Q15910); assay: EZH2 methyltransferase in vitro assay; type: biochemical
T1 construct: purchased BPS Biosciences
Description: EZH2 assays were performed following BPS Biosciences instructions and as previously described.

HCT116 colon carcinoma [1] = assay: Immunohistochemistry and TUNEL of HCT116 xenograft tumors; type: in vivo, mice; conditions: end of treatment, 10 mg/Kg
Description: (§1) HCT116 cell line was grown in McCoy’s medium, supplemented with 10% inactivated FBS, 2 mM glutamine and standard concentration of antibiotics. 7- to 8-week-old male CD1 nude athymic mice were purchased from Charles River and under pathogen-free conditions in accordance with European Directives no. 2010/63 and with Italian D.L. 26/2014. Mice were injected subcutaneously into the right flank with 4 × 10^6 of HCT116 cells; tumor volume (mm^3) was evaluated three times a week by caliper using the formula Dmax x dmin^^2/2, where ‘d’ and ‘D’ are the shortest and the longest diameters, respectively. For all experiments, mice were randomly divided (n = 7) and intra-peritoneal injected by day five every day with: vehicle sesame oil/DMSO 6%; MC2884 10 mg/Kg in sesame oil/DMSO 6%. Mice were sacrificed after 20 days of drug treatment and tumors explanted for immunohistochemical analyses. For HCT116-DKO colon cancer, 6 × 10^6 cells were injected.
The biopsy specimens were fixed in 10% buffered-formalin and paraffin-embedded. Sections of […] were stained with haematoxylin-eosin, and haematoxylin-van Gieson. For immunohistochemistry, specimens were incubated in a microwave oven for 15 min in 10 mM buffered citrate pH 6.0 followed by the immunohistochemical procedure for Ki67 (Santa Cruz Biotechnology Inc., CA, USA), H3K27me3, H3K9/14ac (Diagenode). The conventional avidin-biotin complex procedure was applied according to manufacturer’s protocol (Dako Carpinteria, CA, USA) and incubated with secondary antibody. […] Slides were cover-slipped with a xylene-based mounting medium. Staining was scored as percentage of positive nuclei per high power field 10 × 40. Negative controls for each tissue section were performed omitting the primary antibody. Positive controls included in each experiment consisted of tissue previously shown to express the antigen of interest. TUNEL reaction was performed using the peroxidase-based Apoptag kit (Oncor, Gaithersburg, MD, US). TUNEL positive cells were detected with DAB and H2O2 according to the supplier’s instructions. The experiments were repeated on different sections for each specimen (two to four). For all immunohistochemical markers, 100 random fields (250×) per section were analysed (12.5 mm^2). Mann–Whitney and Wilcoxon tests were used to assess the relationship between ordinal data. Two-tailed P value was considered significant when ≤ 0.05. SPSS software (version 10.00, SPSS, Chicago, IL, USA) was used for statistical analysis.

HCT116 colon carcinoma [2] = assay: HCT116 colon carcinoma xenograft, tumor volume; type: in vivo, mice; conditions: 10 mg/Kg i.p., day 19
Description: as §1

[3] = scored as percentage of positive nuclei

T1 sequence (Q15910 whole entry): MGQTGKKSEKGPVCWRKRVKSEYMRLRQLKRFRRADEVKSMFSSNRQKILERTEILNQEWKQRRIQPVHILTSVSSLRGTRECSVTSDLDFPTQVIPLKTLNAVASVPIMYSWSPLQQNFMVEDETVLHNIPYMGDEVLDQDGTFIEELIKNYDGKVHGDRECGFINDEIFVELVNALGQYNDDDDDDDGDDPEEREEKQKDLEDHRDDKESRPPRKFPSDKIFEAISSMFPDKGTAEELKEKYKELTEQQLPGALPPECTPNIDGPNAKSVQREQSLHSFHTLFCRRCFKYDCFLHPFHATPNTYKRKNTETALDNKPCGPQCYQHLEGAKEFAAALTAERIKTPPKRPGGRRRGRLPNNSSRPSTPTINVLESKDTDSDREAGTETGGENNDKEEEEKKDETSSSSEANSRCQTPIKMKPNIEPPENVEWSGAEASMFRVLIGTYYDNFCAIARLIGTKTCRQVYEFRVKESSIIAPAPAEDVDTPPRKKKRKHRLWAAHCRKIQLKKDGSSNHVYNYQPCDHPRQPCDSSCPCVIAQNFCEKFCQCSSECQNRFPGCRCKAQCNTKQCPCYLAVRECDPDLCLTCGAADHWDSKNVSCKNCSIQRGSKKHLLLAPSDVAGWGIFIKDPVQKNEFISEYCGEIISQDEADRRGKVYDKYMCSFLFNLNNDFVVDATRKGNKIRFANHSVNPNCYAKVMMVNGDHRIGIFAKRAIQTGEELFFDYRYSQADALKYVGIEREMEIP
T1 sequence (O75530 whole entry partner): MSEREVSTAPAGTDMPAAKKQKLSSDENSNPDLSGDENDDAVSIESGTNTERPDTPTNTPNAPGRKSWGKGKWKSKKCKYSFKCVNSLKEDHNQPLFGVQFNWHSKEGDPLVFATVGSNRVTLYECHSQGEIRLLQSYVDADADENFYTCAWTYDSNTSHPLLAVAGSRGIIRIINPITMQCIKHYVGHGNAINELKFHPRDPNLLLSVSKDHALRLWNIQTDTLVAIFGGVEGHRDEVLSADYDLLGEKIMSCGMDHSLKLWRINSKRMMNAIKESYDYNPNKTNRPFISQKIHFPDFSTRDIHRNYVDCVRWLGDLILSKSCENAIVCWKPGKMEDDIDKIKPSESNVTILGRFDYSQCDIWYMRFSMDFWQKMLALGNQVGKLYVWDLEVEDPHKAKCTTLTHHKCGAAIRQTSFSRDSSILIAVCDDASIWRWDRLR
T1 sequence (Q15022 whole entry partner): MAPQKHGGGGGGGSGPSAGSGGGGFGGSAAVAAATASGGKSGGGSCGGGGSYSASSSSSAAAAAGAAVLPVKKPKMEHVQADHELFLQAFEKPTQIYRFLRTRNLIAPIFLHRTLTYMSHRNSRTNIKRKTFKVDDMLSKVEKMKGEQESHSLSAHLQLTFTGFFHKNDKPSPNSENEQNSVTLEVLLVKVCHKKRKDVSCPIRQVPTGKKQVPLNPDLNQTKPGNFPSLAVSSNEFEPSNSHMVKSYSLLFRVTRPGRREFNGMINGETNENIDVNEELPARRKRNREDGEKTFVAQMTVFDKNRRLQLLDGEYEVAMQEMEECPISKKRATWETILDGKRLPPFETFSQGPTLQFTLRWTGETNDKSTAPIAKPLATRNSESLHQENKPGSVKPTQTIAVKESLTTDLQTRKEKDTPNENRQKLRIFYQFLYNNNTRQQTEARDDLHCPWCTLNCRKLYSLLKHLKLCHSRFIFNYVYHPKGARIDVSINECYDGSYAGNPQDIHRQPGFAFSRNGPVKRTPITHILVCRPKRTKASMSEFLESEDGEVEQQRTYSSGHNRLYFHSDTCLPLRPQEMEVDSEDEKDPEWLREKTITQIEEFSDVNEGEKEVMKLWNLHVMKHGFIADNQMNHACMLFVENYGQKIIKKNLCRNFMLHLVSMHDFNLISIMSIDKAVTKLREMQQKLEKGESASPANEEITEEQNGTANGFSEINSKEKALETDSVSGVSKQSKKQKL
T1 sequence (Q09028 whole entry partner): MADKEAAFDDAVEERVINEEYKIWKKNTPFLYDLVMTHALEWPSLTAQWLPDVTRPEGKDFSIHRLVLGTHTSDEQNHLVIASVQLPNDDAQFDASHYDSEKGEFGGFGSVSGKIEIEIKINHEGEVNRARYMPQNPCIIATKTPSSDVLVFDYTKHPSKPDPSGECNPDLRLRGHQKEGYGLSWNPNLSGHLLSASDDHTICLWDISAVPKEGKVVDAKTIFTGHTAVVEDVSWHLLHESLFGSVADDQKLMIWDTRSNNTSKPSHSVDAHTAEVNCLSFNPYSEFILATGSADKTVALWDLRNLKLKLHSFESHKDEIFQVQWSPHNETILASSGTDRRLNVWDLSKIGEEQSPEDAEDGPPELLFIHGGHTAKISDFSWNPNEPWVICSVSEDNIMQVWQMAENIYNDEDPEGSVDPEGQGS
T1 sequence (Q6ZN18 whole entry partner): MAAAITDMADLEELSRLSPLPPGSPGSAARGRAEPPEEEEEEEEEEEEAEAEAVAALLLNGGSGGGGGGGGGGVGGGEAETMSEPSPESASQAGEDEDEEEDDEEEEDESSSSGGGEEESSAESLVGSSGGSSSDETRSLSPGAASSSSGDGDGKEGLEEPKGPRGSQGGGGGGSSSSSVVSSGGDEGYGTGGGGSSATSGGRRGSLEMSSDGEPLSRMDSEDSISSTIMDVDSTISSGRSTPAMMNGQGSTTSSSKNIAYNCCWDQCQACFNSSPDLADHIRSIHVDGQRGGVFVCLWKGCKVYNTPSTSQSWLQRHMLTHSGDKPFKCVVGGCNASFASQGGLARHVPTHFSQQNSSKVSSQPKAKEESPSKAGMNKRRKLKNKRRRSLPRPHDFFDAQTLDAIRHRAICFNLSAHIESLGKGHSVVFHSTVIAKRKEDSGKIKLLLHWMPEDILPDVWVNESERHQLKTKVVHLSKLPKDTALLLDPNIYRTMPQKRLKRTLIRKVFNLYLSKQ

SMILES: O=C1/C(=C/c2cccc(Br)c2)CN(Cc2ccccc2)C/C1=C\c1cccc(Br)c1 [MC2884]
- inhibition at 5 µM (EZH2; 5 μM): ~40%
- inhibition at 25 µM (EZH2; 25 μM): ~80%
- apoptotic index (TUNEL) (HCT116 colon carcinoma [1]): 35±4
- H3 K9/14ac (HCT116 colon carcinoma [1]; [3]): 5±0.2
- H3 K27me3 (HCT116 colon carcinoma [1]; [3]): 19±2
- proliferation index (Ki67) (HCT116 colon carcinoma [1]; [3]): 6±0.5
- tumor volume reduction versus untreated mice (HCT116 colon carcinoma [2]): 90%
